{
  "source": "patent EP0033980A1",
  "about": "“Derivatives of 2-methylpropionic acid, process for their preparation and pharmaceutical compositions containing them” (SCHIAPPARELLI FARMACEUTICI S.p.A., priority 1980, dated 1981)",
  "test_system": "Triglycerid- und Cholesteringehaltes im Blut",
  "assay": "Reduction of blood triglyceride and cholesterol content after 10 days of daily peroral treatment, versus untreated controls",
  "type": "in vivo",
  "settings": "Ratten, 10 Tage, vs. Blindversuche",
  "excerpt": "Diese Wirkungen wurden gegenüber der in der Therapie der Hyperlipidämie (übermäßiger Lipidgehalt im Blut) und Hypercholesterinämie (übermäßiger Cholesteringehalt im Blut) verbreitet angewandten und anerkannt gut wirksamen bekannten Vergleichssubstanz 2-(4'-Chlorphenoxy)-2-me- thylpropionsäure [Clofibrat] bestimmt.\nEs wurden vorherbestimmte tägliche Dosen einer erfin-dungsgemäßen Verbindung Laboratoriumstieren (üblicherweise in Gruppen von je 6 Tiere unterteilten Ratten) peroral verabreicht, während die Vergleichssubstanz 2-(4'-Chlor- phenoxy)-2-methylpropionsäure [Clofibrat] in einser Dosis von 130 mg/kg/Tag ebenfalls peroral verabreicht wurde. Die Behandlung wurde 10 Tage fortgesetzt, dann wurden die Tiere geopfert und ihr Blut wurde gesammelt und der Bestimmung seines Triglycerid- und Cholesteringehaltes unterzogen. Die erhaltenen Ergebnisse, ausgedrückt als prozentuale Verminderung des Triglycerid- und Cholesteringehaltes im Blut (prozentuale Hemmung der Bildung des Triglycerid- und Cholesteringehaltes im Blut) gegenüber den Blindversuchen (das heißt den Ratten, welchen weder eine erfindungsgemäße Verbindung noch die Vergleichssubstanz verabreicht wurde), sind in der folgenden Tabelle zusammengestellt.",
  "data": [
    {"smiles": "CCOC(=O)C(C)(C)Oc1ccc(-c2ccc(F)cc2F)cc1", "note": "[Beispiel 2, 2-(2\",4\"-Difluordiphenyl-4'-yloxy)-2--methylpropionsäureäthylester]", "values": [
      {"measurement": "Verminderung des Cholesteringehaltes in %", "setting": "peroral, 35 mg/kg/Tag", "result": 23, "unit": "%"},
      {"measurement": "Verminderung des Triglyceridgehaltes in %", "setting": "peroral, 35 mg/kg/Tag", "result": 36, "unit": "%"},
      {"measurement": "Verminderung des Cholesteringehaltes in %", "setting": "peroral, 50 mg/kg/Tag", "result": 30, "unit": "%"},
      {"measurement": "Verminderung des Triglyceridgehaltes in %", "setting": "peroral, 50 mg/kg/Tag", "result": 29, "unit": "%"},
      {"measurement": "Verminderung des Cholesteringehaltes in %", "setting": "peroral, 2,5 mg/kg/Tag", "result": 11, "unit": "%"},
      {"measurement": "Verminderung des Triglyceridgehaltes in %", "setting": "peroral, 2,5 mg/kg/Tag", "result": 22, "unit": "%"}
    ]}
  ]
}
